Here are results for two substances from US20080206253A1, “Method For Preventing or Treating Pain in a Mammal” (priority 2005, published 2008).

Data set [1] has as its system rats, formalin-injected hind paw. Briefly: Formalin-induced flinching (paw formalin test). In kind it is in vivo, rat. The procedure:
In recent work it was shown that inhibition of spinal p38 MAP kinase attenuated formalin-induced flinching. Svensson et al., J Neurochem 86: 1534-1544, 2003b. To examine the contribution of p38α and p38β in this experimental model of hyperalgesia, animals were injected with p38α, p38β AS or MS IT for five days. These animals were then examined on the formalin test. Unilateral intraplantar formalin solution (2.5%) caused a biphasic flinching pattern where the first 9 minutes are referred to as phase I and the following 50 minutes (min 10-60) as phase II. Yaksh et al., J Neurosci 21: 5847-5853, 2001a. The phase II flinching is considered to represent afferent input initiated spinal facilitation. Dickenson and Sullivan, Neurosci Lett 83: 207-211, 1987; Puig and Sorkin, Pain 64: 345-355, 1996. […] To further confirm the role of p38 to injury-induced pain behavior, a pharmacological inhibitor was also studied: SB203580, a p38α/β non-selective inhibitor.
To quantify formalin induced flinching, an automated sensing system was employed. Yaksh et al., J Appl Physiol 90: 2386-2402, 2001b. Briefly, a soft metal band was placed on the hind paw of the animal being tested. Animals were allowed to acclimate in individual Plexiglas chambers for 30 min before being moved to a test chamber. Just before the animals were placed into the test chamber, they were briefly restrained in a cloth towel, and 2.5% formalin (50 μl) was injected into the dorsal side of the banded paw. Nociceptive behavior was quantified by automatically counting the incidences of spontaneous flinching or shaking of the injected paw. The flinches were counted for 1-min periods for 60 minutes and the flinch data are expressed as number of flinches per min and total flinches observed during phase I (0-9 min) and phase II (10-60 min).

The next data set has as its system p38α. Briefly: Western blot of spinal p38α protein expression after IT antisense. In kind it is in vivo, rat. The following applies: for p38α protein expression, % Expression Compared to Missense: spinal cord at day six, MS=100%, mean ±SEM n=6; for spinal p38α protein expression compared to missense (MS)-treated animals (in words): five days of IT bolus injections, p38α AS 10-30 μg (30 μg: P<0.05), p38β AS 10-20 μg. The source says:
It has previously been shown that inhibition of spinal p38 MAP kinase prevents both inflammation-evoked hyperalgesia and nerve injury-induced allodynia. Ji et al., Neuron 36: 57-68, 2002; Schafers et al., J Neurosci 23: 2517-2521, 2003; Svensson et al., Neuroreport 14: 1153-1157, 2003a.; Svensson et al., J Neurochem 86: 1534-1544, 2003b. It still remains to be determined whether only one or both of the p38 isoforms, that are present in the spinal cord, are involved in modulation of spinal nociceptive processing. Since there is no specific p38 isoform inhibitors available, rats were treated intrathecally with isoform specific antisense oligonucleotides (AS) in order to knock down p38α and p38β respectively. […] There were no differences between the AS-, MS- or vehicle-treated groups in terms of weight gain or motor function. The specificity of the effects of these two antisense oligonucleotides was also examined. Western blot membranes were stripped and re-incubated the with the other p38 isoform antibody. […] In Table 1, antisense was given IT once daily for 5 days and protein expression assayed in spinal chord at day six compared to protein level detected in missense treated animals (MS=100%). Each group represents mean ±SEM, n=6 per group. (*) represents P<0.05 as compared to the missense group.
Antisense oligonucleotides. Three oligonucleotides (a kind gift from ISIS Pharmaceuticals Inc.) with lengths of 20 nucleotides were employed in the study: ISIS 101757 (p38α AS) […], beginning at position 1081 in the rat p38α mRNA; ISIS 107211 (p38βAS) […], beginning at position 439 in the rat p38β mRNA; and ISIS141923 (an universe MS control) […]. These oligonucleotides were synthesized as 2′-methoxyethyl (MOE) phosphorothioate chimeric oligonucleotides in which the first and last five bases contained MOE modifications with a uniform phosphorothioate backbone. Butler et al., Diabetes 51: 1028-1034, 2002. The oligonucleotides were dissolved in artificial cerebrospinal fluid (ACSF) immediately prior to intrathecal administration. The ACSF contained (mM) 151.1 Na+, 2.6 K+, 0.9 Mg2+, 1.3 Ca 2+, 122.7 Cl−, 21.0 HCO3, 2.5 HPO4 and was bubbled with 95% O2/5% CO2 before use to adjust the final pH to 7.2. AS and MS (10-30 μg) was administrated in 10 μl ACSF followed by 10 μl saline daily for five days and behavioral experiments and spinal tissue collection performed on day six.
Western blot. Prior to sacrifice, rats were deeply anesthetized and after decapitation the spinal cords were ejected from the vertebral column by a saline-filled syringe. The lumbar part of the spinal cord was immediately homogenized in extraction buffer (50 mM Tris buffer, pH 8.0, containing 0.5% Triton X-100, 150 mM NaCl, 1 mM EDTA, phosphatase and protease inhibitors) by sonication. The tissue extracts were subjected to denaturing NuPAGE 4-12% Bis-Tris gel electrophoresis and then transferred to nitrocellulose membranes (Micronic Separation Inc. Westborough, Mass.). After blocking nonspecific binding sites with 5% low-fat milk in PBS containing 0.1% Tween 20 (PBS-T) for 1 hour in room temperature, the membranes were incubated with antibodies overnight at 4° C. After washing, the antibody-protein complexes were probed with appropriate secondary antibodies labeled with horseradish peroxidase for 1 hr at room temperature and detected with chemiluminescent reagents (SuperSignal, Pierce, Rockford, Ill.). […]
In general terms: Immunoblotting shows a protein as a band on a membrane.

Entries after “also recorded” stand apart in the source; their conditions may differ. Marks after values point to notes of the source that are not given here.

“p38α AS: 20-nucleotide 2′-MOE phosphorothioate chimeric antisense AGGTGCTCAGGACTCCATTT, beginning at position 1081 in the rat p38α mRNA (all phosphorothioate, sugars by position and methylation of C not given here; 2'-MOE chimeric (gapmer) antisense)”: the “total number of flinches during phase I or II” value in data set [1] (IT oligonucleotide daily for 5 days, 2.5% formalin into paw, compared with IT saline or MS) is “did not differ; also recorded: no statistical difference”. Also, the “p38α protein expression, % Expression Compared to Missense” value with p38α (IT antisense 10 μg once daily for 5 days) is listed as 59 ± 26%; with p38α (IT antisense 30 μg once daily for 5 days), 39 ± 8* %. In addition, the “spinal p38α protein expression compared to missense (MS)-treated animals (in words)” value with p38α was “significant down-regulation; also recorded: knocked down”.

Consider “p38β AS: 20-nucleotide 2′-MOE phosphorothioate chimeric antisense GTATGTCCTCCTCGCGTGGA, beginning at position 439 in the rat p38β mRNA (all phosphorothioate, sugars by position and methylation of C not given here; 2'-MOE chimeric (gapmer) antisense)”, for which, in data set [1] (IT p38β AS (3-20 μg) daily for 5 days, compared to saline and MS treated animals, P<0.05 (10 and 20 μg)), the “number of flinches during phase two” value was “statistical significant reduction; also recorded: statistically different”. Besides, the “p38α protein expression, % Expression Compared to Missense” value in the data set with p38α (IT antisense 20 μg once daily for 5 days) is given as 205 ± 65* %. In addition, the “spinal p38α protein expression compared to missense (MS)-treated animals (in words)” value with p38α is recorded as “somewhat increased”.
